In PubChem BioAssay AID2060491 (Molecular Pharmacology Branch, DTP, NCI, 2025):

System: 857933-349-R-J2-PDC complex spheroids, viability
Test: Anticancer human tumor 857933-349-R-J2-PDC patient-derived colon adenocarcinoma cell line growth inhibition [GQUAD]
Settings: for IC50: curve of first compound; for viability, T/C: stronger effect = lower value
Method in brief: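 Multi-cell-type spheroids of tumor cells with HUVEC and mesenchymal stem cells, treated with drug combinations. Concentrations descend in half-log steps from near clinical Cmax, or from 10 microM where Cmax is unknown; viability read-out.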

[1] = second compound 0.0316 µM, first compound 0.0316 µM
[2] = second compound 0.0316 µM, first compound 0.316 µM
[3] = second compound 0.1 µM, first compound 0.0316 µM
[4] = second compound 0.1 µM, first compound 0.316 µM
[5] = second compound 0.316 µM, first compound 0.0316 µM
[6] = second compound 0.316 µM, first compound 0.316 µM
[7] = second compound 1 µM, first compound 0.0316 µM
[8] = second compound 1 µM, first compound 0.316 µM
[9] = second compound 3.16 µM, first compound 0.0316 µM
[10] = second compound 3.16 µM, first compound 0.316 µM
[11] = second compound 10 µM, first compound 0.0316 µM
[12] = second compound 10 µM, first compound 0.316 µM
[13] = second compound 0.0316 µM, first compound 0.1 µM
[14] = second compound 0.0316 µM, first compound 1 µM
[15] = second compound 0.0316 µM, first compound 3.16 µM
[16] = second compound 0.0316 µM, first compound 10 µM
[17] = second compound 0.1 µM, first compound 0.1 µM
[18] = second compound 0.1 µM, first compound 1 µM
[19] = second compound 0.1 µM, first compound 3.16 µM
[20] = second compound 0.1 µM, first compound 10 µM
[21] = second compound 0.316 µM, first compound 0.1 µM
[22] = second compound 0.316 µM, first compound 1 µM
[23] = second compound 0.316 µM, first compound 3.16 µM
[24] = second compound 0.316 µM, first compound 10 µM
[25] = second compound 1 µM, first compound 0.1 µM
[26] = second compound 1 µM, first compound 1 µM
[27] = second compound 1 µM, first compound 3.16 µM
[28] = second compound 1 µM, first compound 10 µM
[29] = second compound 3.16 µM, first compound 0.1 µM
[30] = second compound 3.16 µM, first compound 1 µM
[31] = second compound 3.16 µM, first compound 3.16 µM
[32] = second compound 3.16 µM, first compound 10 µM
[33] = second compound 10 µM, first compound 0.1 µM
[34] = second compound 10 µM, first compound 1 µM
[35] = second compound 10 µM, first compound 3.16 µM
[36] = second compound 10 µM, first compound 10 µM
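Further: spheroids exposed to compounds for one week before readout.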
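Wherever viability, T/C is given: percent viability relative to vehicle DMSO wells taken as 100%.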

Structure (SMILES): CC[C@@]1(O)C(=O)OCc2c1cc1n(c2=O)Cc2cc3c(CN(C)C)c(O)ccc3nc2-1 + Cc1cnc(CNC(=O)c2c(=O)c3ccc(N4CCCN(C)CC4)nc3n3c2sc2ccccc23)cn1
- IC50 (second compound 0.0316 µM): 87.2 nM
- IC50 (second compound 0.1 µM): 68 nM
- IC50 (second compound 0.316 µM): < 0.999 nM
- IC50 (second compound 1 µM): < 0.999 nM
- IC50 (second compound 3.16 µM): < 0.999 nM
- IC50 (second compound 10 µM): < 0.999 nM
- viability, T/C (second compound 0.0316 µM, first compound 0.000999 µM): 95.9%
- viability, T/C (second compound 0.0316 µM, first compound 0.00316 µM): 96%
- viability, T/C (second compound 0.0316 µM, first compound 0.00999 µM): 81.6%
- viability, T/C [1]: 59.7%
- viability, T/C (second compound 0.0316 µM, first compound 0.0999 µM): 53.1%
- viability, T/C [2]: 32.2%
- viability, T/C (second compound 0.1 µM, first compound 0.000999 µM): 58.2%
- viability, T/C (second compound 0.1 µM, first compound 0.00316 µM): 65.6%
- viability, T/C (second compound 0.1 µM, first compound 0.00999 µM): 61.4%
- viability, T/C [3]: 60.3%
- viability, T/C (second compound 0.1 µM, first compound 0.0999 µM): 44.8%
- viability, T/C [4]: 19.6%
- viability, T/C (second compound 0.316 µM, first compound 0.000999 µM): 23.6%
- viability, T/C (second compound 0.316 µM, first compound 0.00316 µM): 20.7%
- viability, T/C (second compound 0.316 µM, first compound 0.00999 µM): 18.6%
- viability, T/C [5]: 22%
- viability, T/C (second compound 0.316 µM, first compound 0.0999 µM): 14%
- viability, T/C [6]: 5.04%
- viability, T/C (second compound 1 µM, first compound 0.000999 µM): 4.85%
- viability, T/C (second compound 1 µM, first compound 0.00316 µM): 5.23%
- viability, T/C (second compound 1 µM, first compound 0.00999 µM): 4.03%
- viability, T/C [7]: 3.48%
- viability, T/C (second compound 1 µM, first compound 0.0999 µM): 2.83%
- viability, T/C [8]: 2.11%
- viability, T/C (second compound 3.16 µM, first compound 0.000999 µM): 2.58%
- viability, T/C (second compound 3.16 µM, first compound 0.00316 µM): 2.92%
- viability, T/C (second compound 3.16 µM, first compound 0.00999 µM): 2.38%
- viability, T/C [9]: 2.13%
- viability, T/C (second compound 3.16 µM, first compound 0.0999 µM): 1.91%
- viability, T/C [10]: 1.66%
- viability, T/C (second compound 10 µM, first compound 0.000999 µM): 1.38%
- viability, T/C (second compound 10 µM, first compound 0.00316 µM): 1.91%
- viability, T/C (second compound 10 µM, first compound 0.00999 µM): 1.93%
- viability, T/C [11]: 2.78%
- viability, T/C (second compound 10 µM, first compound 0.0999 µM): 0.44%
- viability, T/C [12]: 0.24%

Structure (SMILES): C=CC(=O)N1CCN(c2nc(=O)n(-c3c(C)ccnc3C(C)C)c3nc(-c4c(O)cccc4F)c(F)cc23)C(C)C1 (stereo not drawn) + CN(C)c1ccc(Nc2c3ccc(NC(=O)CCN4CCCC4)cc3nc3cc(NC(=O)CCN4CCCC4)ccc23)cc1
- IC50 (second compound 0.0316 µM): > 10000 nM
- IC50 (second compound 0.1 µM): > 10000 nM
- IC50 (second compound 0.316 µM): > 10000 nM
- IC50 (second compound 1 µM): > 10000 nM
- IC50 (second compound 3.16 µM): > 10000 nM
- IC50 (second compound 10 µM): > 10000 nM
- viability, T/C [1]: 114%
- viability, T/C [13]: 91.7%
- viability, T/C [2]: 108%
- viability, T/C [14]: 97.3%
- viability, T/C [15]: 114%
- viability, T/C [16]: 112%
- viability, T/C [3]: 104%
- viability, T/C [17]: 102%
- viability, T/C [4]: 102%
- viability, T/C [18]: 102%
- viability, T/C [19]: 108%
- viability, T/C [20]: 113%
- viability, T/C [5]: 105%
- viability, T/C [21]: 99.5%
- viability, T/C [6]: 99%
- viability, T/C [22]: 99.8%
- viability, T/C [23]: 112%
- viability, T/C [24]: 107%
- viability, T/C [7]: 97.2%
- viability, T/C [25]: 90.8%
- viability, T/C [8]: 102%
- viability, T/C [26]: 99.6%
- viability, T/C [27]: 113%
- viability, T/C [28]: 98.3%
- viability, T/C [9]: 90.2%
- viability, T/C [29]: 79.5%
- viability, T/C [10]: 91.4%
- viability, T/C [30]: 89.9%
- viability, T/C [31]: 100%
- viability, T/C [32]: 88%
- viability, T/C [11]: 73%
- viability, T/C [33]: 77.9%
- viability, T/C [12]: 70.8%
- viability, T/C [34]: 77.5%
- viability, T/C [35]: 82.3%
- viability, T/C [36]: 79.3%

Structure (SMILES): O=C(NO)c1cnc(N2CCN(S(=O)(=O)c3ccc4ccccc4c3)CC2)nc1 + Cc1[nH]c2ccc(F)cc2c1-c1nc2c3cccnc3c3ncccc3c2[nH]1
- IC50 (second compound 0.0316 µM): 1530 nM
- IC50 (second compound 0.1 µM): 1590 nM
- IC50 (second compound 0.316 µM): 1610 nM
- IC50 (second compound 1 µM): 1680 nM
- IC50 (second compound 3.16 µM): 1600 nM
- IC50 (second compound 10 µM): 1770 nM
- viability, T/C [1]: 107%
- viability, T/C [13]: 96.5%
- viability, T/C [2]: 107%
- viability, T/C [14]: 79%
- viability, T/C [15]: 1.25%
- viability, T/C [16]: 0.26%
- viability, T/C [3]: 109%
- viability, T/C [17]: 103%
- viability, T/C [4]: 100%
- viability, T/C [18]: 81.9%
- viability, T/C [19]: 2.07%
- viability, T/C [20]: 0.2%
- viability, T/C [5]: 101%
- viability, T/C [21]: 100%
- viability, T/C [6]: 96.1%
- viability, T/C [22]: 80.5%
- viability, T/C [23]: 6.68%
- viability, T/C [24]: 0.19%
- viability, T/C [7]: 94.7%
- viability, T/C [25]: 92.4%
- viability, T/C [8]: 98.2%
- viability, T/C [26]: 84.8%
- viability, T/C [27]: 7.25%
- viability, T/C [28]: 0.23%
- viability, T/C [9]: 93.1%
- viability, T/C [29]: 93.7%
- viability, T/C [10]: 96.1%
- viability, T/C [30]: 80.8%
- viability, T/C [31]: 4.92%
- viability, T/C [32]: 0.25%
- viability, T/C [11]: 95.7%
- viability, T/C [33]: 94.2%
- viability, T/C [12]: 99.2%
- viability, T/C [34]: 93.6%
- viability, T/C [35]: 5.75%
- viability, T/C [36]: 0.31%

Structure (SMILES): Nc1ccn(C2OC(CO)C(O)C2(F)F)c(=O)n1 (stereo not drawn) + Cc1cnc(CNC(=O)c2c(=O)c3ccc(N4CCCN(C)CC4)nc3n3c2sc2ccccc23)cn1
- IC50 (second compound 0.0316 µM): 168 nM
- IC50 (second compound 0.1 µM): 154 nM
- IC50 (second compound 0.316 µM): < 31.6 nM
- IC50 (second compound 1 µM): < 31.6 nM
- IC50 (second compound 3.16 µM): < 31.6 nM
- IC50 (second compound 10 µM): < 31.6 nM
- viability, T/C [1]: 75.9%
- viability, T/C [13]: 52.3%
- viability, T/C [2]: 46.6%
- viability, T/C [14]: 9.53%
- viability, T/C [15]: 6.32%
- viability, T/C [16]: 3.33%
- viability, T/C [3]: 63.6%
- viability, T/C [17]: 61%
- viability, T/C [4]: 32.8%
- viability, T/C [18]: 9.17%
- viability, T/C [19]: 3.78%
- viability, T/C [20]: 2.52%
- viability, T/C [5]: 28.4%
- viability, T/C [21]: 18.3%
- viability, T/C [6]: 10.9%
- viability, T/C [22]: 3.62%
- viability, T/C [23]: 2.32%
- viability, T/C [24]: 1.88%
- viability, T/C [7]: 5.32%
- viability, T/C [25]: 4.52%
- viability, T/C [8]: 2.56%
- viability, T/C [26]: 1.63%
- viability, T/C [27]: 1.61%
- viability, T/C [28]: 1.61%
- viability, T/C [9]: 2.51%
- viability, T/C [29]: 2.77%
- viability, T/C [10]: 1.64%
- viability, T/C [30]: 1.52%
- viability, T/C [31]: 1.19%
- viability, T/C [32]: 0.24%
- viability, T/C [11]: 1.6%
- viability, T/C [33]: 1.03%
- viability, T/C [12]: 1.41%
- viability, T/C [34]: 0.26%
- viability, T/C [35]: 0.21%
- viability, T/C [36]: 0.2%
